Legend:
Type in all cases: in vivo
[1] = test system: Barnyardgrass; experiment: Pre-emergent herbicidal activity (Table II); conditions: 2-3 weeks
In short: (§1)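 Seeds or vegetative propagules were sown on compacted top soil in pans and covered with a soil layer mixed with a known amount of active ingredient, applied in solvent or as wettable powder suspension. Pans were kept on a greenhouse bench, watered from below, and injury rated on a fixed scale about 2-3 weeks later.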

[2] = test system: Canada Thistle; experiment: Pre-emergent herbicidal activity (Table II); conditions: 2-3 weeks
In short: as §1

[3] = test system: Cocklebur; experiment: Pre-emergent herbicidal activity (Table II); conditions: 2-3 weeks
In short: as §1

[4] = test system: Downy Brome; experiment: Pre-emergent herbicidal activity (Table II); conditions: 2-3 weeks
In short: as §1

[5] = test system: Johnsongrass; experiment: Pre-emergent herbicidal activity (Table II); conditions: 2-3 weeks
In short: as §1

[6] = test system: Lambsquarters; experiment: Pre-emergent herbicidal activity (Table II); conditions: 2-3 weeks
In short: as §1

[7] = test system: Morningglory; experiment: Pre-emergent herbicidal activity (Table II); conditions: 2-3 weeks
In short: as §1

[8] = test system: Quackgrass; experiment: Pre-emergent herbicidal activity (Table II); conditions: 2-3 weeks
In short: as §1

[9] = test system: Smartweed; experiment: Pre-emergent herbicidal activity (Table II); conditions: 2-3 weeks
In short: as §1

[10] = test system: Velvetleaf; experiment: Pre-emergent herbicidal activity (Table II); conditions: 2-3 weeks
In short: as §1

[11] = test system: Yellow Nutsedge; experiment: Pre-emergent herbicidal activity (Table II); conditions: 2-3 weeks
In short: as §1

[12] = test system: Barnyardgrass; experiment: Pre-emergent herbicidal activity (Table III)
Method: (§2) The pre-emergence tests are conducted as follows:
(§3) A good grade of top soil is placed in aluminum pans and compacted to a depth of three-eighths to one-half inch from the top of the pan. On the top of the soil is placed a predetermined number of seeds or vegetative propagules of various plant species. The soil required to level fill the pans after seeding or adding vegetative propagules is weighed into a pan. A known amount of the active ingredient applied in a solvent or as a wettable powder suspension and the soil are thoroughly mixed, and used as a cover layer for prepared pans. After treatment, the pans are moved into a greenhouse bench where they are watered from below as needed to give adequate moisture for germination and growth.
(§4) Approximately 2-3 weeks after seeding and treating, the plants are observed and the results recorded. The herbicidal rating is obtained by means of fixed scale based on the percent injury of each plant species. The ratings are defined as follows: […]
(§5) The compounds were further tested by utilizing the above procedure on the following plant species: […]

[13] = test system: Cocklebur; experiment: Pre-emergent herbicidal activity (Table III)
Method: as §2, §3, §4, §5

[14] = test system: Crabgrass; experiment: Pre-emergent herbicidal activity (Table III)
Method: as §2, §3, §4, §5

[15] = test system: Downy Brome; experiment: Pre-emergent herbicidal activity (Table III)
Method: as §2, §3, §4, §5

[16] = test system: Hemp Sesbania; experiment: Pre-emergent herbicidal activity (Table III)
Method: as §2, §3, §4, §5

[17] = test system: Lambsquarters; experiment: Pre-emergent herbicidal activity (Table III)
Method: as §2, §3, §4, §5

[18] = test system: Morningglory; experiment: Pre-emergent herbicidal activity (Table III)
Method: as §2, §3, §4, §5

[19] = test system: Panicum; experiment: Pre-emergent herbicidal activity (Table III)
Method: as §2, §3, §4, §5

[20] = test system: Rice; experiment: Pre-emergent herbicidal activity (Table III)
Method: as §2, §3, §4, §5

[21] = test system: Smartweed; experiment: Pre-emergent herbicidal activity (Table III)
Method: as §2, §3, §4, §5

[22] = test system: Sorghum; experiment: Pre-emergent herbicidal activity (Table III)
Method: as §2, §3, §4, §5

[23] = test system: Soybean; experiment: Pre-emergent herbicidal activity (Table III)
Method: as §2, §3, §4, §5

[24] = test system: Sugarbeet; experiment: Pre-emergent herbicidal activity (Table III)
Method: as §2, §3, §4, §5

[25] = test system: Velvetleaf; experiment: Pre-emergent herbicidal activity (Table III)
Method: as §2, §3, §4, §5

[26] = test system: Wheat; experiment: Pre-emergent herbicidal activity (Table III)
Method: as §2, §3, §4, §5

[27] = test system: Wild Buckwheat; experiment: Pre-emergent herbicidal activity (Table III)
Method: as §2, §3, §4, §5
Further: ranges in brackets are in %.

For CC1=C(N(Cn2c(=O)sc3ccccc32)C(=O)CCl)C(C)CCC1 (stereo not shown) [Example 9, N--[(2-oxo-3(2H)--benzothiazolyl)methyl]-N--(2,6-dimethyl-1-cyclohexen-1-yl)-2-chloroamide], the Herbicidal rating ([1]; 5.6 kg/ha) was 3 (75-100), the Herbicidal rating ([1]; 11.2 kg/ha) was 3 (75-100) and the Herbicidal rating ([2]; 5.6 kg/ha) was 0 (0-24). For the same compound, the Herbicidal rating ([2]; 11.2 kg/ha) was 0 (0-24), the Herbicidal rating ([3]; 5.6 kg/ha) was 0 (0-24) and the Herbicidal rating ([3]; 11.2 kg/ha) was 0 (0-24). The Herbicidal rating ([4]; 5.6 kg/ha) was 0 (0-24), the Herbicidal rating ([4]; 11.2 kg/ha) was 2 (50-74) and the Herbicidal rating ([5]; 5.6 kg/ha) was 0 (0-24). The Herbicidal rating ([5]; 11.2 kg/ha) was 0 (0-24), the Herbicidal rating ([6]; 5.6 kg/ha) was 1 (25-49) and the Herbicidal rating ([6]; 11.2 kg/ha) was 1 (25-49). For the same compound, the Herbicidal rating ([7]; 5.6 kg/ha) was 0 (0-24), the Herbicidal rating ([7]; 11.2 kg/ha) was 0 (0-24) and the Herbicidal rating ([8]; 5.6 kg/ha) was 0 (0-24). The Herbicidal rating ([8]; 11.2 kg/ha) was 1 (25-49), the Herbicidal rating ([9]; 5.6 kg/ha) was 0 (0-24) and the Herbicidal rating ([9]; 11.2 kg/ha) was 3 (75-100). For the same compound, the Herbicidal rating ([10]; 5.6 kg/ha) was 0 (0-24), the Herbicidal rating ([10]; 11.2 kg/ha) was 0 (0-24) and the Herbicidal rating ([11]; 5.6 kg/ha) was 0 (0-24). For the same compound, the Herbicidal rating ([11]; 11.2 kg/ha) was 0 (0-24), the Herbicidal rating ([12]; 0.26 kg/ha) was 2 (50-74) and the Herbicidal rating ([12]; 1.12 kg/ha) was 3 (75-100). For the same compound, the Herbicidal rating ([12]; 5.6 kg/ha) was 3 (75-100), the Herbicidal rating ([13]; 0.26 kg/ha) was 0 (0-24) and the Herbicidal rating ([13]; 1.12 kg/ha) was 0 (0-24). For the same compound, the Herbicidal rating ([14]; 0.26 kg/ha) was 1 (25-49), the Herbicidal rating ([14]; 1.12 kg/ha) was 2 (50-74) and the Herbicidal rating ([14]; 5.6 kg/ha) was 3 (75-100). The Herbicidal rating ([15]; 0.26 kg/ha) was 0 (0-24), the Herbicidal rating ([15]; 1.12 kg/ha) was 0 (0-24) and the Herbicidal rating ([15]; 5.6 kg/ha) was 2 (50-74). The Herbicidal rating ([16]; 1.12 kg/ha) was 0 (0-24), the Herbicidal rating ([16]; 5.6 kg/ha) was 0 (0-24) and the Herbicidal rating ([17]; 0.26 kg/ha) was 0 (0-24). The Herbicidal rating ([17]; 1.12 kg/ha) was 0 (0-24), the Herbicidal rating ([17]; 5.6 kg/ha) was 1 (25-49) and the Herbicidal rating ([18]; 1.12 kg/ha) was 0 (0-24). For the same compound, the Herbicidal rating ([18]; 5.6 kg/ha) was 0 (0-24), the Herbicidal rating ([19]; 0.26 kg/ha) was 0 (0-24) and the Herbicidal rating ([19]; 1.12 kg/ha) was 0 (0-24). For the same compound, the Herbicidal rating ([19]; 5.6 kg/ha) was 3 (75-100), the Herbicidal rating ([20]; 0.26 kg/ha) was 0 (0-24) and the Herbicidal rating ([20]; 1.12 kg/ha) was 2 (50-74). The Herbicidal rating ([20]; 5.6 kg/ha) was 2 (50-74), the Herbicidal rating ([21]; 0.26 kg/ha) was 0 (0-24) and the Herbicidal rating ([21]; 1.12 kg/ha) was 0 (0-24). For the same compound, the Herbicidal rating ([21]; 5.6 kg/ha) was 1 (25-49), the Herbicidal rating ([22]; 0.26 kg/ha) was 0 (0-24) and the Herbicidal rating ([22]; 1.12 kg/ha) was 0 (0-24). For the same compound, the Herbicidal rating ([22]; 5.6 kg/ha) was 2 (50-74), the Herbicidal rating ([23]; 0.26 kg/ha) was 0 (0-24) and the Herbicidal rating ([23]; 1.12 kg/ha) was 0 (0-24). The Herbicidal rating ([23]; 5.6 kg/ha) was 0 (0-24), the Herbicidal rating ([24]; 0.26 kg/ha) was 0 (0-24) and the Herbicidal rating ([24]; 1.12 kg/ha) was 0 (0-24). For the same compound, the Herbicidal rating ([24]; 5.6 kg/ha) was 1 (25-49), the Herbicidal rating ([25]; 0.26 kg/ha) was 0 (0-24) and the Herbicidal rating ([25]; 1.12 kg/ha) was 0 (0-24). For the same compound, the Herbicidal rating ([25]; 5.6 kg/ha) was 0 (0-24), the Herbicidal rating ([26]; 0.26 kg/ha) was 0 (0-24) and the Herbicidal rating ([26]; 1.12 kg/ha) was 0 (0-24). For the same compound, the Herbicidal rating ([26]; 5.6 kg/ha) was 2 (50-74), the Herbicidal rating ([27]; 0.26 kg/ha) was 0 (0-24) and the Herbicidal rating ([27]; 1.12 kg/ha) was 0 (0-24). For the same compound, the Herbicidal rating ([27]; 5.6 kg/ha) was 0 (0-24).

Reference: patent US4731451A, “N-((2-oxo-3(2H)benzothiazolyl)methyl)-2-chloroacetanilides” (Monsanto Company, priority 1980, dated 1988)
